58 molecules from ChEMBL document CHEMBL1158193, “Ability of different flavonoids to inhibit the procoagulant activity of adherent human monocytes” (J Nat Prod, 1996) can be followed below.

Structures are written as SMILES.

The test system of one experiment is Monocyte. As to the kind of experiment: Inhibition of procoagulant activity in monocyte from human blood assessed as counteraction of endotoxin-induced tissue factor expression after 18 hrs. The experiment is classed as functional, cell-based.
In the case of `O=c1cc(-c2ccc(Oc3c(O)cc4oc(-c5ccc(O)cc5)cc(=O)c4c3O)cc2)oc2cc(O)cc(O)c12` [HINOKIFLAVONE], the IC50 turned out to be 0.018 µM.

In a further experiment the test system is Monocyte. As to the kind of experiment: Inhibition of procoagulant activity in monocyte from human blood assessed as counteraction of IL1-induced tissue factor expression at 10 uM after 18 hrs measured as microunits of tissue factor/10^5 cells. The format is functional.
On to `O=c1c(-c2ccc3c(c2)OCO3)coc2cc(O)ccc12` [PSEUDOBAPTOGENIN], for which the Activity stood at 0.
The same measure, in the same setting: then `O=c1c(-c2ccc(O)cc2)coc2cc(O[C@@H]3O[C@H](CO)[C@@H](O)[C@H](O)[C@H]3O)ccc12` [DAIDZIN], with 0.
The same measure, in the same setting: then `COc1cc(-c2cc(=O)c3c(O)c(OC)c(OC)cc3o2)cc(OC)c1OC` [GRADENIN A], with 0.
On the same count and under the same terms, then `O=c1cc(-c2ccc(O)c(O)c2)oc2cc(O)cc(O)c12` [LUTEOLIN], with 10.6; and `O=c1c(O[C@@H]2O[C@H](CO)[C@@H](O)[C@H](O)[C@H]2O)c(-c2ccc(O)cc2)oc2cc(O)cc(O)c12` [ASTRAGALIN], with 0.
With `O=C1C[C@@H](c2ccc(O)cc2)Oc2cc(O)cc(O)c21` [NARINGENIN], the Activity is recorded as 0.
On the same count and under the same terms, then `COc1ccc([C@@H]2CC(=O)c3c(O)cc(O[C@@H]4O[C@H](CO)[C@@H](O)[C@H](O)[C@H]4O[C@@H]4O[C@@H](C)[C@H](O)[C@@H](O)[C@H]4O)cc3O2)cc1O` [NEOHESPERIDIN], with 0.
Still for that read-out and setting: then `C[C@@H]1O[C@@H](OC[C@H]2O[C@@H](Oc3c(-c4ccc(O)c(O)c4)oc4cc(O)cc(O)c4c3=O)[C@H](O)[C@@H](O)[C@@H]2O)[C@H](O)[C@H](O)[C@H]1O` [RUTIN], with 9.1; and `COc1c(-c2ccccc2)oc2c(ccc3occc32)c1=O` [KARANJIN], with 0.
As to `COc1ccc(-c2cc(=O)c3c(O)cc(O)cc3o2)cc1` [ACACETIN], the Activity stood at 26.
On to `COc1ccc(-c2cc(=O)c3c(OC)c(OC)c(OC)cc3o2)cc1O`, for which the Activity worked out at 0.
Same read-out and setting: then `O=c1cc(-c2ccccc2)oc2cc(O)c(O)c(O)c12` [BAICALEIN], with 55.2; and `COc1ccc(-c2cc(=O)c3c(O)c(OC)c(OC)cc3o2)cc1O` [EUPATORIN], with 0; and `O=c1c(O)c(-c2ccccc2O)oc2cc(O)cc(O)c12` [DATISCETIN], with 28.4.
On the same count and under the same terms, then `COc1cc(O)c2c(=O)c(O)c(-c3ccc(O)c(O)c3)oc2c1` [RHAMNETIN], with 0; and `C[C@@H]1O[C@@H](OC[C@H]2O[C@@H](Oc3c(-c4ccccc4O)oc4cc(O)cc(O)c4c3=O)[C@H](O)[C@@H](O)[C@@H]2O)[C@H](O)[C@H](O)[C@H]1O`, with 28.4.
On the same count and under the same terms, then `CCCC(=O)Oc1c(OC)cc(O)c2c(=O)c(O)c(-c3ccccc3)oc12`, with 0; and `COc1ccc(-c2cc(=O)c3c(OC)c(OC)c(OC)c(OC)c3o2)cc1` [TANGERETIN], with 0.
As to `O=C1c2c(O)cc(O)cc2O[C@H](c2ccc(O)c(O)c2)[C@H]1O` [(+)-TAXIFOLIN], the Activity was found to be 41.
Still for that read-out and setting: then `C[C@H]1O[C@@H](Oc2c(-c3cc(O)c(O)c(O)c3)oc3cc(O)cc(O)c3c2=O)[C@@H](O)[C@@H](O)[C@@H]1O` [MYRICITRIN], with 37.7.
The same measure, in the same setting: then `COc1ccc(-c2cc(=O)c3ccccc3o2)cc1` [4'-METHOXYFLAVONE], with 0.
For the molecule `CC(=O)OC[C@H]1O[C@@H](Oc2c(-c3ccc(O)c(O)c3)oc3cc(O)cc(O)c3c2=O)[C@H](O)[C@@H](O)[C@@H]1O`, the Activity stood at 12.4.
`COc1cc(C2Oc3cc([C@H]4Oc5cc(O)cc(O)c5C(=O)[C@@H]4O)ccc3OC2CO)ccc1O` (stereo partly specified) [SILIBININ]: the Activity is on record as 0.
In the case of `COc1cc([C@@H]2CC(=O)c3c(O)cc(O)cc3O2)ccc1O` [HOMOERIODICTYOL], the Activity stood at 0.
The same measure, in the same setting: then `O=c1c(-c2ccc(O)cc2)coc2cc(O)ccc12` [DAIDZEIN], with 0; and `COc1ccc(-c2cc(=O)c3c(O)cc(O)c(-c4cc(-c5cc(=O)c6c(O)cc(OC)cc6o5)ccc4OC)c3o2)cc1` [SCIADOPITISIN], with 0; and `O=C1c2ccc(O)cc2O[C@H](c2ccc(O)c(O)c2)[C@H]1O` [FUSTIN], with 0.
Take `O=c1c(O)c(-c2ccccc2)oc2cc(O)cc(O)c12` [GALANGIN]: the Activity was 0.
For `O=c1c(O)c(-c2ccc(O)c(O)c2)oc2cc(O)cc(O)c12` [QUERCETIN], the Activity was found to be 0.
Same read-out and setting: then `COc1cc(O)c2c(=O)cc(-c3ccccc3)oc2c1` [TECHTOCHRYSIN], with 39; and `O=C1c2ccc(O)cc2O[C@@H](c2cc(O)c(O)c(O)c2)[C@@H]1O` [DIHYDROROBINETIN], with 0; and `C[C@@H]1O[C@@H](OC[C@H]2O[C@@H](Oc3cc(O)c4c(c3)O[C@H](c3ccc(O)cc3)CC4=O)[C@H](O)[C@@H](O)[C@@H]2O)[C@H](O)[C@H](O)[C@H]1O` [NARIRUTIN], with 0.
Regarding `O=c1cc(-c2ccccc2)oc2ccccc12` [FLAVONE], the Activity amounted to 6.8.
The same measure, in the same setting: then `O=c1c(O)c(-c2cc(O)c(O)c(O)c2)oc2cc(O)cc(O)c12` [MYRICETIN], with 1.2.
Take `O=c1cc(-c2ccc(Oc3c(O)cc4oc(-c5ccc(O)cc5)cc(=O)c4c3O)cc2)oc2cc(O)cc(O)c12` [HINOKIFLAVONE]: the Activity turned out to be 0.
On the same count and under the same terms, then `COc1cc(-c2cc(=O)c3c(O)cc(O)cc3o2)cc(OC)c1OC`, with 0.
The same measure, in the same setting: then `O=c1c(O[C@@H]2O[C@@H](CO)[C@H](O)[C@H]2O)c(-c2ccc(O)c(O)c2)oc2cc(O)cc(O)c12` [AVICULARIN], with 0; and `O=c1c(O)c(-c2ccc(O)cc2O)oc2cc(O)cc(O)c12` [MORIN], with 0; and `O=c1c(O)c(-c2ccc(O)c(O)c2)oc2cc(O)c(O)c(O)c12` [QUERCETAGETIN], with 0.
On to `O=c1c(O)c(-c2cc(O)c(O)c(O)c2)oc2cc(O)ccc12` [ROBINETIN], for which the Activity was 38.5.

In the next experiment the test system is Monocyte. The experiment is described as follows: Inhibition of procoagulant activity in monocyte from human blood assessed as counteraction of IL1-induced tissue factor expression after 18 hrs. The experiment is classed as functional, cell-based.
Turning to `O=c1cc(-c2ccc(O)c(O)c2)oc2cc(O)cc(O)c12` [LUTEOLIN], the IC50 came to 1.5 µM.
Same read-out and setting: then `COc1cc(-c2oc3cc(O)cc(O)c3c(=O)c2O)ccc1O` [ISORHAMNETIN], with 3.8 µM; and `COc1cc2oc(-c3ccc(O)cc3)cc(=O)c2cc1CC=C(C)C` [BAVACHININ], with 3.2 µM.
On the same count and under the same terms, then `O=c1cc(-c2ccc(O)cc2)oc2cc(O)cc(O)c12` [APIGENIN], with 1.2 µM.
Still for that read-out and setting: then `COc1ccc(-c2cc(=O)c3c(OC)c(OC)c(OC)cc3o2)cc1OC` [SINENSETIN], with 10 µM; and `O=c1c(O)c(-c2ccc(O)c(O)c2)oc2cc(O)ccc12` [FISETIN], with 3.7 µM.
As to `COc1ccc(-c2oc3cc(O)cc(O)c3c(=O)c2O)cc1` [KAEMPFERIDE], the 50% inhibitory concentration (IC50) was 5.7 µM.
The same measure, in the same setting: then `COc1cc(-c2oc3cc(O)cc(O)c3c(=O)c2O)cc(OC)c1O` [SYRINGETIN], with 2.1 µM; and `O=c1cc(-c2ccccc2)oc2cc(O)cc(O)c12` [CHRYSIN], with 2.4 µM.
On the same count and under the same terms, then `O=c1cc(-c2ccc(O)c(O[C@@H]3O[C@H](CO)[C@@H](O)[C@H](O)[C@H]3O)c2)oc2cc(O[C@@H]3O[C@H](CO)[C@@H](O)[C@H](O)[C@H]3O)cc(O)c12` [LUTEOLIN-3',7-DIGLUCOSIDE], with 1.55 µM; and `O=c1c(O)c(-c2ccc(O)cc2)oc2cc(O)cc(O)c12` [KAEMPFEROL], with 2.7 µM; and `O=c1cc(-c2ccc(O)c(-c3c(O)cc(O)c4c(=O)cc(-c5ccc(O)cc5)oc34)c2)oc2cc(O)cc(O)c12` [AMENTOFLAVONE], with 3 µM.
The same measure, in the same setting: then `COc1ccc(-c2oc3cc(O)cc(O)c3c(=O)c2O)cc1O` [TAMARIXETIN], with 4.6 µM.
As for `O=c1cc(-c2ccc(Oc3c(O)cc4oc(-c5ccc(O)cc5)cc(=O)c4c3O)cc2)oc2cc(O)cc(O)c12` [HINOKIFLAVONE], the IC50 turned out to be 0.048 µM.
The same measure, in the same setting: then `COc1cc(-c2oc3cc(O)cc(O)c3c(=O)c2O[C@@H]2O[C@H](CO)[C@@H](O)[C@H](O)[C@H]2O)ccc1O`, with 3.8 µM; and `O=C(/C=C/c1ccc(O)cc1)OC[C@H]1O[C@@H](Oc2c(-c3ccc(O)cc3)oc3cc(O)cc(O)c3c2=O)[C@H](O)[C@@H](O)[C@@H]1O` [TILIROSIDE], with 5.2 µM.
On the same count and under the same terms, then `COc1ccc([C@@H]2CC(=O)c3c(O)cc(O)cc3O2)cc1O` [HESPERETIN], with 2.1 µM.
Regarding `COc1ccc(-c2cc(=O)c3c(O)cc(O)cc3o2)cc1O` [DIOSMETIN], the half-maximal inhibitory concentration (IC50) turned out to be 3 µM.
On the same count and under the same terms, then `COc1cc(-c2oc3cc(O)ccc3c(=O)c2O)ccc1O` [GERALDOL], with 2.3 µM.
Still for that read-out and setting: then `COc1cc(-c2cc(=O)c3c(O)cc(O)cc3o2)ccc1O` [CHRYSOERIOL], with 2.6 µM.
